Results from patent US20160279215A1, “NOVEL PEPTIDES AND COMBINATION OF PEPTIDES FOR USE IN IMMUNOTHERAPY AGAINST VARIOUS TUMORS” (immatics biotechnologies GmbH, priority 2015, published 2016).

Tests used:
[1] = system: CD8+ T cells of healthy HLA-A*02 donors; experiment: In vitro immunogenicity: T-cell priming with aAPCs loaded with peptide/MHC and anti-CD28, pMHC multimer readout; format: cell-based, human; details: in vitro immunogenicity, HLA-A*02 restricted peptides; percentage of positive wells among evaluable
Source text: In order to obtain information regarding the immunogenicity of the TUMAPs of the present invention, the inventors performed investigations using an in vitro T-cell priming assay based on repeated stimulations of CD8+ T cells with artificial antigen presenting cells (aAPCs) loaded with peptide/MHC complexes and anti-CD28 antibody.
In order to perform in vitro stimulations by artificial antigen presenting cells loaded with peptide-MHC complex (pMHC) and anti-CD28 antibody, the inventors first isolated CD8+ T cells from fresh HLA-A*02 leukapheresis products via positive selection using CD8 microbeads (Miltenyi Biotec, Bergisch-Gladbach, Germany) of healthy donors obtained from the University clinics Mannheim, Germany, after informed consent. PBMCs and isolated CD8+ lymphocytes were incubated in T-cell medium (TCM) until use consisting of RPMI-Glutamax (Invitrogen, Karlsruhe, Germany) supplemented with 10% heat inactivated human AB serum (PAN-Biotech, Aidenbach, Germany), 100 U/ml Penicillin/100 μg/ml Streptomycin (Cambrex, Cologne, Germany), 1 mM sodium pyruvate (CC Pro, Oberdorla, Germany), 20 μg/ml Gentamycin (Cambrex). 2.5 ng/ml IL-7 (PromoCell, Heidelberg, Germany) and 10 U/ml IL-2 (Novartis Pharma, Nürnberg, Germany) were also added to the TCM at this step. Generation of pMHC/anti-CD28 coated beads, T-cell stimulations and readout was performed in a highly defined in vitro system using four different pMHC molecules per stimulation condition and 8 different pMHC molecules per readout condition.
The purified co-stimulatory mouse IgG2a anti human CD28 Ab 9.3 (Jung et al., 1987) was chemically biotinylated using Sulfo-N-hydroxysuccinimidobiotin as recommended by the manufacturer (Perbio, Bonn, Germany). Beads used were 5.6 μm diameter streptavidin coated polystyrene particles (Bangs Laboratories, Illinois, USA).
pMHC used for positive and negative control stimulations were A*0201/MLA-001 (peptide […] (SEQ ID NO. 289) from modified Melan-A/MART-1) and A*0201/DDX5-001 ([…] from DDX5, SEQ ID NO. 290), respectively.
800.000 beads/200 μl were coated in 96-well plates in the presence of 4×12.5 ng different biotin-pMHC, washed and 600 ng biotin anti-CD28 were added subsequently in a volume of 200 μl. Stimulations were initiated in 96-well plates by co-incubating […] CD8+ T cells with 2×10^5 washed coated beads in 200 μl TCM supplemented with 5 ng/ml IL-12 (PromoCell) for 3 days at 37° C. Half of the medium was then exchanged by fresh TCM supplemented with 80 U/ml IL-2 and incubating was continued for 4 days at 37° C. This stimulation cycle was performed for a total of three times. For the pMHC multimer readout using 8 different pMHC molecules per condition, a two-dimensional combinatorial coding approach was used as previously described (Andersen et al., 2012) with minor modifications encompassing coupling to 5 different fluorochromes. Finally, multimeric analyses were performed by staining the cells with Live/dead near IR dye (Invitrogen, Karlsruhe, Germany), CD8-FITC antibody clone SK1 (BD, Heidelberg, Germany) and fluorescent pMHC multimers. For analysis, a BD LSRII SORP cytometer equipped with appropriate lasers and filters was used. Peptide specific cells were calculated as percentage of total CD8+ cells. Evaluation of multimeric analysis was done using the FlowJo software (Tree Star, Oreg., USA). In vitro priming of specific multimer+ CD8+ lymphocytes was detected by comparing to negative control stimulations.
Exemplary flow cytometry results after TUMAP-specific multimer staining for 15 peptides of the invention are shown in FIGS. 3 and 6 together with corresponding negative controls.

HLA-A*02:01 = target: T1, HLA-A*02:01 (Homo sapiens, UniProt P04439, D140Y/D185E/D98H/E176V/E277Q/G131W/G231S/I119V/I121R/I166T/I218V/L300P/L318F/N151K/N90K/P208A/P217A/Q86G/Q94H/R138H/R169H/T345S); experiment: MHC binding assay: UV-ligand exchange with β2m ELISA (peptide exchange yield); details: binding to HLA-A*02:01 evaluated by peptide exchange yield (UV-ligand exchange, β2m ELISA)
T1 construct: made in house
Procedure, shortened: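 Peptide–MHC complexes formed by UV-ligand exchange, cleaving a UV-sensitive peptide so the test peptide can bind. Exchange yield measured by ELISA: complexes captured on streptavidin-coated wells, diluted 100-fold, detected with HRP anti-β2m (1 h, 37 °C) and TMB at 450 nm, against refolded HLA-A*02:01/MLA-001 standards (15-500 ng/ml).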

Substance	Wells positive [%] [1]	Peptide exchange (HLA-A*02:01)
4 (VLFGELPAL; listed as Homo sapiens) [compound 4]	+ (<20% = +)	+++ (≧50 = +++)
7 (ALLQALMEL; listed as Homo sapiens) [compound 7]	++ (20%-49% = ++)	+++ (≧50 = +++)
9 (SLITGQDLLSV; listed as Homo sapiens) [compound 9]	+ (<20% = +)	+++ (≧50 = +++)
11 (LLDPKTIFL; listed as Homo sapiens) [compound 11]	++ (20%-49% = ++)	+++ (≧50 = +++)
14 (YTFSGDVQL; listed as Homo sapiens) [compound 14]	+ (<20% = +)	+++ (≧50 = +++)
17 (GLLPSAESIKL; listed as Homo sapiens) [compound 17]	+ (<20% = +)	++++ (≧75% = ++++)
27 (GLLGKVTSV; listed as Homo sapiens) [compound 27]	+ (<20% = +)	+++ (≧50 = +++)
29 (KMISAIPTL; listed as Homo sapiens) [compound 29]	+ (<20% = +)	++ (≧20% = ++)
35 (VIIKGLEEI; listed as Homo sapiens) [compound 35]	+ (<20% = +)	++ (≧20% = ++)
48 (KISDFGLATV; listed as Homo sapiens) [compound 48]	++ (20%-49% = ++)	+++ (≧50 = +++)
50 (ILLSVLHQL; listed as Homo sapiens) [compound 50]	+ (<20% = +)	+++ (≧50 = +++)
66 (AMFPDTIPRV; listed as Homo sapiens) [compound 66]	+ (<20% = +)	++ (≧20% = ++)
77 (ALYGNVQQV; listed as Homo sapiens) [compound 77]	+ (<20% = +)	+++ (≧50 = +++)
89 (SLAETIFIV; listed as Homo sapiens) [compound 89]	+ (<20% = +)	+++ (≧50 = +++)
92 (RLFEEVLGV; listed as Homo sapiens) [compound 92]	++ (20%-49% = ++)	++++ (≧75% = ++++)
97 (KLFEKSTGL; listed as Homo sapiens) [compound 97]	+ (<20% = +)	+++ (≧50 = +++)
101 (SLLEVNEASSV; listed as Homo sapiens) [compound 101]	+ (<20% = +)	+++ (≧50 = +++)
102 (GLYPVTLVGV; listed as Homo sapiens) [compound 102]	+ (<20% = +)	+++ (≧50 = +++)
117 (TLLEGISRA; listed as Homo sapiens) [compound 117]	++ (20%-49% = ++)	++ (≧20% = ++)
121 (ALYVQAPTV; listed as Homo sapiens) [compound 121]	+ (<20% = +)	++ (≧20% = ++)

Substance	Wells positive [%] [1]	Peptide exchange (HLA-A*02:01)
157 (ILQDGQFLV; listed as Homo sapiens) [compound 157]	+ (<20% = +)	++ (≧20% = ++)
166 (LLGDSSFFL; listed as Homo sapiens) [compound 166]	++ (20%-49% = ++)	+++ (≧50 = +++)
233 (SLFESLEYL; listed as Homo sapiens) [compound 233]	+ (<20% = +)	+++ (≧50 = +++)
234 (VLLNEILEQV; listed as Homo sapiens) [compound 234]	++ (20%-49% = ++)	++++ (≧75% = ++++)
236 (KMSELQTYV; listed as Homo sapiens) [compound 236]	+ (<20% = +)	+++ (≧50 = +++)
242 (KLQEEIPVL; listed as Homo sapiens) [compound 242]	+ (<20% = +)	+++ (≧50 = +++)
246 (ALAGIVTNV; listed as Homo sapiens) [compound 246]	+ (<20% = +)	+++ (≧50 = +++)
248 (VLMQDSRLYL; listed as Homo sapiens) [compound 248]	++ (20%-49% = ++)	+++ (≧50 = +++)
251 (LLWGNLPEI; listed as Homo sapiens) [compound 251]	++ (20%-49% = ++)	+++ (≧50 = +++)
253 (KLLAVIHEL; listed as Homo sapiens) [compound 253]	++ (20%-49% = ++)	+++ (≧50 = +++)
254 (ALGDKFLLRV; listed as Homo sapiens) [compound 254]	+ (<20% = +)	++ (≧20% = ++)
255 (FLMKNSDLYGA; listed as Homo sapiens) [compound 255]	+ (<20% = +)	+++ (≧50 = +++)
257 (KLIDHQGLYL; listed as Homo sapiens) [compound 257]	+ (<20% = +)	+++ (≧50 = +++)
260 (ALNESLVEC; listed as Homo sapiens) [compound 260]	+ (<20% = +)	+++ (≧50 = +++)
261 (GLAALAVHL; listed as Homo sapiens) [compound 261]	++ (20%-49% = ++)	+++ (≧50 = +++)
263 (SIIEYLPTL; listed as Homo sapiens) [compound 263]	+ (<20% = +)	+++ (≧50 = +++)
264 (TLHDQVHLL; listed as Homo sapiens) [compound 264]	+ (<20% = +)	++ (≧20% = ++)
267 (YLLDMPLWYL; listed as Homo sapiens) [compound 267]	+ (<20% = +)	+++ (≧50 = +++)
275 (AVPPPPSSV; listed as Homo sapiens) [compound 275]	++ (20%-49% = ++)	++ (≧20% = ++)
